According to patent US7919468B2, “Compounds useful as modulators of the proteasome activity” (Centre National de la Recherche Scientifique (C.N.R.S.), priority 2005, dated 2011):
Peptide text beside a SMILES is read from it. * marks the point of attachment. Boc = CC(C)(C)OC(=O)*; NHBn = c1ccc(CN*)cc1; NHPh = c1ccc(N*)cc1; Bn = c1ccc(C*)cc1

How the values were obtained:
[1] = biological target: T1, rabbit 20S proteasome, post-acid (PA) activity (Oryctolagus cuniculus, UniProt A0A5F9DQW2); experiment: Rabbit 20S proteasome fluorescent assay, post-acid activity (Z-LLE-βNA); type: biochemical; details: pH 7.5, 30° C.; for PA % inhibition (at 100 μM): 100 μM compound
T1 construct: other: 100 μM compound, pH 7.5, 30° C; other: pH 7.5, 30° C
Method: (§1) 20S proteasome from rabbit reticulocyte was from commercial source (Alexis Biochemicals)
(§2) Semi-automatic fluorescent assays using Suc-LLVY-amc (SEQ ID NO: 2) for chymotrypsin-like activity, Z-LLE-SNA for post-acid activity and Boc-LLR-amc for trypsin-like activity of proteasome were performed at pH 7.5 and 30° C. using BMG Fluostar microplate reader (Suc=succinyl; amc=7-amino-4-methylcoumarin; Z=benzyloxycarbonyl; NA=2-naphtylamine; Boc=tert-butoxycarbonyl). The buffers were: 20 mM Tris, 1 mM DTT, 10% glycerol, 3% (v/v) DMSO (ChT-L and PA activities); 20 mM Tris, 1 mM DTT, 10% glycerol, 3% (v/v) DMSO. Studied compounds were dissolved in DMSO prior dissolution in the buffer. Proteasome was incubated for 15 min at 30° C. in the presence of the studied compound (0.1-100 μM). A control assay in the absence of tested compounds contained DMSO at the same concentration (3%, v/v). The fluorogenic proteasome substrate was then added and the hydrolysis of the appropriate fluorescent substrate was monitored for 1 h (λexc=360, λem=465 nm for amc substrates and λexc=340, λem=405 nm for the βNA substrate). Initial rates determined in control experiments were considered to be 100% of the peptidasic activity; initial rates that were above 100% in the presence of a test compound were considered to be activations, while initial rates below 100% were considered to be inhibitions. For weak inhibitors, the percentage of inhibition at a reference concentration (100 μM) is reported. The results, expressed in % inhibition (or activation factor), were obtained by calculating the average of at least two independent experiments, the variability was less than 10%. The inhibitory activity of more efficient compounds are expressed as IC50 calculated by fitting the experimental data to the equation 1: % Inhibition=100 [I]0/(IC50+[I]0)=100 (v0−vi/v0), or equation 2: % Inhibition=100 [I]0^nH/(IC50^nH+[I]0^nH), nH is the Hill number. v0 and vi are the initial rates in the absence and in the presence of inhibitor. A Dixon plot has been used to determine the inhibition constant Ki for competitive inhibition by compound A215. The reversible character of inhibition or activation was determined by measuring the activity of treated enzyme after the inhibitor molecule has been withdrawn from the reaction medium.
(§3) Inhibition of Rabbit 20 S Proteasome (pH=7.5, 30° C.)
(§4) Activation of Rabbit 20 S Proteasome (pH=7.5, 30° C., [Compound]=100 μM)

[2] = biological target: T2, rabbit 20S proteasome, trypsin-like (T-L) activity (Oryctolagus cuniculus, UniProt G1SWK8); experiment: Rabbit 20S proteasome fluorescent assay, trypsin-like activity (Boc-LLR-amc); type: biochemical; details: pH 7.5, 30° C.; for inhibition at 100 µM: 100 μM compound
T2 construct: other: 100 μM compound, pH 7.5, 30° C; other: pH 7.5, 30° C
T2 sequence (G1SWK8 1-271): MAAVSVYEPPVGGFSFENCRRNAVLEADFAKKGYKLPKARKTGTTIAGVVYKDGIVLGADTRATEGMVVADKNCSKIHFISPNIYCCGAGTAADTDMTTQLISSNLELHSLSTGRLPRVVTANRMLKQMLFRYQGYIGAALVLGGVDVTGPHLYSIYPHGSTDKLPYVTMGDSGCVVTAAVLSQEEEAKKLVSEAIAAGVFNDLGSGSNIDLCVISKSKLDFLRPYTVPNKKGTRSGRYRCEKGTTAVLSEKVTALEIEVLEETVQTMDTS
Method: as §1, §2, §3, §4

[3] = biological target: T3, rabbit 20S proteasome, chymotrypsin-like (CT-L) activity (Oryctolagus cuniculus, UniProt G1T4Q9); experiment: Rabbit 20S proteasome fluorescent assay, chymotrypsin-like activity (Suc-LLVY-amc); type: biochemical; details: pH 7.5, 30° C.
T3 construct: other: 100 μM compound, pH 7.5, 30° C; other: pH 7.5, 30° C; CT-L Ki
T3 sequence (G1T4Q9 1-263): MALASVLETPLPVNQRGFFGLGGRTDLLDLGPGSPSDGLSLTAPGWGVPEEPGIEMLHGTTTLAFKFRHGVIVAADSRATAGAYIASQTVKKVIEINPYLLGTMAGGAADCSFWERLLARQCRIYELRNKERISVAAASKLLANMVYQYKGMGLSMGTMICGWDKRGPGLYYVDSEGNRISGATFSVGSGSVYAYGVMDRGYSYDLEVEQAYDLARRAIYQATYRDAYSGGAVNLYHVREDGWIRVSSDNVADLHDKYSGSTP
Method: as §1, §2, §3, §4

[4] = system: rabbit 20S proteasome, trypsin-like (T-L) activity; experiment: Rabbit 20S proteasome fluorescent assay, trypsin-like activity (Boc-LLR-amc); type: biochemical; details: [Compound]=100 μM, pH 7.5, 30° C.
Method: as §1, §2, §3, §4

[5] = system: T4, rabbit 20S proteasome, chymotrypsin-like (CT-L) activity; experiment: Rabbit 20S proteasome fluorescent assay, chymotrypsin-like activity (Suc-LLVY-amc); type: biochemical; details: [Compound]=100 μM, pH 7.5, 30° C.
T4 construct: other: [Compound]=100 μM, pH 7.5, 30° C
Method: as §1, §2, §3, §4

[6] = patients enrolled in clinical trials (thrombocytopaenia, fatigue, peripheral neuropathy, neutropenia); cited from earlier work
[7] = system: rabbit 20S proteasome, post-acid (PA) activity; experiment: Rabbit 20S proteasome fluorescent assay, post-acid activity (Z-LLE-βNA); type: biochemical; details: [Compound]=100 μM, pH 7.5, 30° C.
Method: as §1, §2, §3, §4

T1 sequence (A0A5F9DQW2 1-212): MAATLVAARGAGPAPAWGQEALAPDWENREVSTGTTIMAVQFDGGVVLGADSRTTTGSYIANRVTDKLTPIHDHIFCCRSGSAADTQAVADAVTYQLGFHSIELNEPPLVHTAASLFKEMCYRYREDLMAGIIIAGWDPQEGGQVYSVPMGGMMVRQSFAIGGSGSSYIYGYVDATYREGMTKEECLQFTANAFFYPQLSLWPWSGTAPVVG

Row | Structure (SMILES) | T-L Activation factor [4] | CT-L Activation factor [5] | further results
1 | CC(C)(C)OC(=O)N[C@@H](Cc1ccc(O)cc1)C(=O)N[C@@H](CCCNC(=N)N)C(=O)N[C@@H](Cc1c[nH]c2ccccc12)C(=O)Nc1ccc(O)cc1 [SP324, N-Boc-Tyr-Arg-Trp-NH(4-OH)Ph] |  |  | IC50 [1]: 3 µM; IC50 [2]: 21 µM; IC50 [3]: 9 µM
2 | CC(C)(C)OC(=O)N[C@@H](Cc1ccc(OCc2ccccc2)cc1)C(=O)N[C@@H](CC(N)=O)C(=O)N[C@@H](Cc1c[nH]c2ccccc12)C(=O)Nc1ccccc1 [SP314C2, N-Boc-Tyr(Bn)-Asn-Trp-NHPh] (Boc-Tyr(Bn)-Asn-Trp-NHPh) | 2.5 | 1.5 | 
3 | CNC(=O)[C@H](Cc1c[nH]c2c(-c3cc(C[C@H](NC(=O)OC(C)(C)C)C(=O)N[C@@H](CC(C)C)C(=O)OC)ccc3OCc3ccccc3)cccc12)NC(=O)OCc1ccccc1 [SP226F1] |  |  | inhibition at 100 µM [2]: 23%
4 | CC(C)(C)OC(=O)N[C@@H](Cc1ccc(OCc2ccccc2)cc1)C(=O)NCC(=O)N[C@@H](Cc1c[nH]c2ccccc12)C(=O)NCc1ccccc1 [PSV11R, N-Boc-Tyr(Bn)-Gly-Trp-NHCH2Ph] (Boc-Tyr(Bn)-Gly-Trp-NHBn) | 1.7 | 1.2 | PA % inhibition (at 100 μM) [1]: 59%
5 | CC(C)C[C@H](NC(=O)[C@H](Cc1ccccc1)NC(=O)c1cnccn1)B(O)O [Bortezomib, bortezomib] |  |  | patients with adverse events [6]: 30%
6 | CC(C)(C)OC(=O)NCCCCNC(=O)[C@H](Cc1c[nH]c2ccccc12)NC(=O)[C@H](CCCN(C(=N)NC(=O)OCc1ccccc1)C(=O)OCc1ccccc1)NC(=O)[C@H](Cc1ccc(OCc2ccccc2)cc1)NC(=O)OC(C)(C)C [SP311C, N-Boc-Tyr(Bn)-Arg(Z)-2-Trp-NH(CH2)4NHBoc] | 1.9 | 1.3 | PA Activation factor [7]: 1.2
7 | CC(C)C[C@H](NC(=O)[C@H](Cc1ccc(OCc2ccccc2)cc1)NC(=O)OC(C)(C)C)C(=O)N[C@@H](Cc1c[nH]c2ccccc12)C(=O)NCc1ccccc1 [A414P, N-Boc-Tyr(Bn)-Leu-Trp-NHCH2Ph] (Boc-Tyr(Bn)-Leu-Trp-NHBn) | 1.9 | 1.3 | 
8 | CC(C)(C)OC(=O)NCCCC[C@H](NC(=O)[C@H](Cc1ccc(OCc2ccccc2)cc1)NC(=O)OC(C)(C)C)C(=O)N[C@@H](Cc1c[nH]c2ccccc12)C(=O)Nc1ccc(O)cc1 [SP319P, N-Boc-Tyr(Bn)-Lys(Boc)-Trp-NH(4-OH)Ph] |  |  | inhibition at 100 µM [2]: 14%; inhibition at 100 µM ([3]; 100 μM compound): 36%
9 | CC(C)(C)OC(=O)NCCCC[C@H](NC(=O)[C@H](Cc1ccc(OCc2ccccc2)cc1)NC(=O)OC(C)(C)C)C(=O)N[C@@H](Cc1c[nH]c2ccccc12)C(=O)NCc1ccccc1 [SP307P, N-Boc-Tyr(Bn)-Lys(Boc)-Trp-NHCH2Ph] (Boc-Tyr(Bn)-Lys(Boc)-Trp-NHBn) | 1.8 | 1.3 | 
10 | C[C@H](NC(=O)[C@H](Cc1ccc(OCc2ccccc2)cc1)NC(=O)OC(C)(C)C)C(=O)N[C@@H](Cc1c[nH]c2ccccc12)C(=O)NCCCCNC(=O)OC(C)(C)C [SP305R, N-Boc-Tyr(Bn)-Ala-Trp-NH(CH2)4NHBoc] | 3.2 | 1.5 | PA Activation factor [7]: 1.2
11 | CC(C)(C)OC(=O)NCCCCNC(=O)[C@H](Cc1c[nH]c2ccccc12)NC(=O)[C@H](CC(N)=O)NC(=O)[C@H](Cc1ccc(OCc2ccccc2)cc1)NC(=O)OC(C)(C)C [SP323C2, N-Boc-Tyr(Bn)-Asn-Trp-NH(CH2)4NHBoc] | 2.2 | 1.6 | PA Activation factor [7]: 1.2
12 | CC(C)C[C@H](NC(=O)[C@H](Cc1ccc(OCc2ccccc2)cc1)NC(=O)OC(C)(C)C)C(=O)N[C@@H](Cc1c[nH]c2ccccc12)C(=O)Nc1ccccc1 [A424P, N-Boc-Tyr(Bn)-Leu-Trp-NHPh] (Boc-Tyr(Bn)-Leu-Trp-NHPh) | 1.9 | 1.2 | 
13 | C[C@H](NC(=O)[C@H](Cc1ccc(OCc2ccccc2)c(I)c1)NC(=O)OC(C)(C)C)C(=O)N[C@@H](Cc1c[nH]c2c(Br)cccc12)C(=O)O [A215, N-Boc-3-iodo-Tyr(Bn)-Ala-7-bromo-Trp-OH] |  |  | IC50 [1]: 11.3 µM; IC50 [2]: 14.4 µM; Ki ([3]; Dixon plot, competitive inhibition): 2 µM; IC50 [3]: 6.8 µM
14 | CC(C)(C)OC(=O)N[C@@H](Cc1ccc(OCc2ccccc2)cc1)C(=O)N[C@@H](CCCN(C(=N)NC(=O)OCc1ccccc1)C(=O)OCc1ccccc1)C(=O)N[C@@H](Cc1c[nH]c2ccccc12)C(=O)Nc1ccccc1 [SP310C, N-Boc-Tyr(Bn)-Arg(Z)-2-Trp-NHPh] | 1.6 | 1.7 | 
15 | CC(C)(C)OC(=O)N[C@@H](Cc1ccc(OCc2ccccc2)cc1)C(=O)N[C@@H](CCCN(C(=N)NC(=O)OCc1ccccc1)C(=O)OCc1ccccc1)C(=O)N[C@@H](Cc1c[nH]c2ccccc12)C(=O)NCc1ccccc1 [SP315C2, N-Boc-Tyr(Bn)-Arg(Z)-2-Trp-NHCH2Ph] | 1.9 | 1.2 | 
16 | CC(C)(C)OC(=O)NCCCC[C@H](NC(=O)[C@H](Cc1ccc(OCc2ccccc2)cc1)NC(=O)OC(C)(C)C)C(=O)N[C@@H](Cc1c[nH]c2ccccc12)C(=O)Nc1ccccc1 [SP306P, N-Boc-Tyr(Bn)-Lys(Boc)-Trp-NHPh] (Boc-Tyr(Bn)-Lys(Boc)-Trp-NHPh) | 1.6 | 1.2 | 
17 | CC(C)(C)OC(=O)N[C@@H](Cc1ccc(O)cc1)C(=O)N[C@@H](CCCNC(=N)N)C(=O)N[C@@H](Cc1c[nH]c2ccccc12)C(=O)NCc1ccccc1 [SP325, N-Boc-Tyr-Arg-Trp-NHCH2Ph] (Boc-Tyr-Arg-Trp-NHBn) |  |  | IC50 [1]: 2.5 µM; IC50 [2]: 19 µM; IC50 [3]: 5.4 µM
18 | CNC(=O)[C@H](Cc1c[nH]c2c(-c3cc(C[C@H](NC(=O)OC(C)(C)C)C(=O)N[C@@H](C)C(=O)OC)ccc3OCc3ccccc3)cccc12)NC(=O)OCc1ccccc1 [SP225F2] |  |  | PA % inhibition (at 100 μM) [1]: 25%; inhibition at 100 µM [2]: 49%
19 | CC(C)(C)OC(=O)NCCCCNC(=O)[C@H](Cc1c[nH]c2ccccc12)NC(=O)[C@H](CCCCNC(=O)OC(C)(C)C)NC(=O)[C@H](Cc1ccc(OCc2ccccc2)cc1)NC(=O)OC(C)(C)C [SP308P, N-Boc-Tyr(Bn)-Lys(Boc)-Trp-NH(CH2)4NHBoc] | 1.9 | 1.6 | 
20 | C[C@H](NC(=O)[C@H](Cc1ccc(OCc2ccccc2)cc1)NC(=O)OC(C)(C)C)C(=O)N[C@@H](Cc1c[nH]c2ccccc12)C(=O)Nc1ccccc1 [SP303r2, N-Boc-Tyr(Bn)-Ala-Trp-NHPh] (Boc-Tyr(Bn)-Ala-Trp-NHPh) | 1.6 | 1.4 | 
